Laboratory results: patent publication US20260022142A1, “MACROCYCLIC IMMUNOMODULATORS” (Bristol-Myers Squibb Company, priority 2022, published 2026)
Bridge positions count the residues as written; N and C are the ends. Square brackets hold non-standard residues; d marks the D form. Peptide text beside a SMILES is read from it. * marks the point of attachment. Phe(3-CF3) = N[C@@H](Cc1cccc(C(F)(F)F)c1)C(=O)O; Ala(morpholin-4-yl) = N[C@@H](CN1CCOCC1)C(=O)O; Phe(4-COOH) = N[C@@H](Cc1ccc(C(=O)O)cc1)C(=O)O; Bip = N[C@@H](Cc1ccc(-c2ccccc2)cc1)C(=O)O; NH(CH2)14COOH = O=C(O)CCCCCCCCCCCCCCN*; NH(CH2)12COOH = O=C(O)CCCCCCCCCCCCN*; Val(3-OH) = CC(C)(O)[C@H](N)C(=O)O; Cha = N[C@@H](CC1CCCCC1)C(=O)O; PEG4 = NCCOCCOCCOCCOCCC(=O)O; Carboxymethyl = O=C(O)C*; Nle = CCCC[C@H](N)C(=O)O; Orn = NCCC[C@H](N)C(=O)O; Dab = NCC[C@H](N)C(=O)O; AEEA = NCCOCCOCC(=O)O

Biological target: T1, PD-1/PD-L1 interaction (PE-labeled human PD-L1-Ig binding to Jurkat cell line over-expressing human PD-1) (Homo sapiens, UniProt Q15116)
T1 construct: expressed in transfected cells; host or cells: Jurkat
Test: Jurkat-PD-1 Cell Binding High-Content Screening Assay (CBA)
Type: cell-based
Conditions: Jurkat cell line over-expressing human PD-1; PE-labeled PD-L1-Ig 20 nM final; read-out: Jurkat hPD1-PDL1 IC50
In short: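 Jurkat cells stably over-expressing human PD-1 were seeded in DMEM with 10% fetal calf serum and pre-incubated with compound for 2 h at 37° C. PE-labeled human PD-L1-Ig was then added at 20 nM final for 1 hour, after which cells were fixed with paraformaldehyde, Hoechst-stained and imaged by high-content microscopy.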

T1 sequence (Q15116 25-288): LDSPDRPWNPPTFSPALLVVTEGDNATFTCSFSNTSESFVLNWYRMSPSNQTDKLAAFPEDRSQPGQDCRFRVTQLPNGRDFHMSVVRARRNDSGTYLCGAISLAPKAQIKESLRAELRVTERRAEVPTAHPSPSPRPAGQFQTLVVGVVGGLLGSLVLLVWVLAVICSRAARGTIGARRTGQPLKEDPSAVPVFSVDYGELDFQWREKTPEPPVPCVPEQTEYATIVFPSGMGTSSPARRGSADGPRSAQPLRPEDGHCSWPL

Compound | IC50 [nM]
COC[C@@H]1NC(=O)CSC[C@@H](C(=O)N[C@@H](CCN)C(=O)NCCCCCCCCCCCCC(=O)O)NC(=O)[C@H](CO)NC(=O)[C@H](C(C)(C)O)NC(=O)[C@H](CC2CCCCC2)NC(=O)[C@H](CCN)NC(=O)[C@@H](CC(C)C)NC(=O)[C@H](CCCN)NC(=O)[C@H](Cc2ccc(C(=O)O)cc2)NC(=O)[C@H](Cc2ccc(-c3ccccc3)cc2)NC(=O)[C@H](Cc2ccc(C(=O)O)cc2)NC(=O)[C@H](Cc2cccc(C(F)(F)F)c2)NC(=O)[C@H](CC(=O)O)NC(=O)[C@H](Cc2ccc(OCC(=O)O)cc2)NC1=O [Compound 2907] ({CH2CO}-S(Me)Y(Carboxymethyl)D[Phe(3-CF3)][Phe(4-COOH)][Bip][Phe(4-COOH)][Orn][dL][Dab][Cha][Val(3-OH)]SC[Dab]-{NH(CH2)12COOH}; thioether N-14) | 41.8
COC[C@@H]1NC(=O)CSC[C@@H](C(=O)N[C@@H](CCN)C(=O)NCCCCCCCCCCCCCCC(=O)O)NC(=O)[C@H](CO)NC(=O)[C@H](C(C)(C)O)NC(=O)[C@H](CC2CCCCC2)NC(=O)[C@H](CCN)NC(=O)[C@@H](CC(C)C)NC(=O)[C@H](CCCN)NC(=O)[C@H](Cc2ccc(C(=O)O)cc2)NC(=O)[C@H](Cc2ccc(-c3ccccc3)cc2)NC(=O)[C@H](Cc2ccc(C(=O)O)cc2)NC(=O)[C@H](Cc2cccc(C(F)(F)F)c2)NC(=O)[C@H](CC(=O)O)NC(=O)[C@H](Cc2ccc(OCC(=O)O)cc2)NC1=O [Compound 2908] ({CH2CO}-S(Me)Y(Carboxymethyl)D[Phe(3-CF3)][Phe(4-COOH)][Bip][Phe(4-COOH)][Orn][dL][Dab][Cha][Val(3-OH)]SC[Dab]-{NH(CH2)14COOH}; thioether N-14) | 541
CCCC[C@@H]1NC(=O)CSC[C@@H](C(=O)N[C@@H](CCN)C(=O)NCCOCCOCC(=O)NCCOCCOCC(=O)NCCCCCCCCCCCCC(=O)O)NC(=O)[C@H](CO)NC(=O)[C@H](C(C)(C)O)NC(=O)[C@H](CC2CCCCC2)NC(=O)[C@H](CCN)NC(=O)[C@@H](CC(C)C)NC(=O)[C@H](CCCN)NC(=O)[C@H](Cc2ccc(C(=O)O)cc2)NC(=O)[C@H](Cc2ccc(-c3ccccc3)cc2)NC(=O)[C@H](Cc2ccc(C(=O)O)cc2)NC(=O)[C@H](Cc2cccc(C(F)(F)F)c2)NC(=O)[C@H](CC(=O)O)NC(=O)[C@H](Cc2ccc(OCC(=O)O)cc2)NC1=O [Compound 2909] ({CH2CO}-[Nle]Y(Carboxymethyl)D[Phe(3-CF3)][Phe(4-COOH)][Bip][Phe(4-COOH)][Orn][dL][Dab][Cha][Val(3-OH)]SC[Dab][AEEA][AEEA]-{NH(CH2)12COOH}; thioether N-14) | 18.2
CCCC[C@@H]1NC(=O)CSC[C@@H](C(=O)N[C@@H](CCN)C(=O)NCCOCCOCCOCCOCCC(=O)NCCCCCCCCCCCCC(=O)O)NC(=O)[C@H](CO)NC(=O)[C@H](C(C)(C)O)NC(=O)[C@H](CC2CCCCC2)NC(=O)[C@H](CCN)NC(=O)[C@@H](CC(C)C)NC(=O)[C@H](CCCN)NC(=O)[C@H](Cc2ccc(C(=O)O)cc2)NC(=O)[C@H](Cc2ccc(-c3ccccc3)cc2)NC(=O)[C@H](Cc2ccc(C(=O)O)cc2)NC(=O)[C@H](Cc2cccc(C(F)(F)F)c2)NC(=O)[C@H](CC(=O)O)NC(=O)[C@H](Cc2ccc(OCC(=O)O)cc2)NC1=O [Compound 2911] ({CH2CO}-[Nle]Y(Carboxymethyl)D[Phe(3-CF3)][Phe(4-COOH)][Bip][Phe(4-COOH)][Orn][dL][Dab][Cha][Val(3-OH)]SC[Dab][PEG4]-{NH(CH2)12COOH}; thioether N-14) | 34.9
CCCC[C@@H]1NC(=O)CSC[C@@H](C(=O)N[C@@H](CCN)C(=O)NCCOCCOCCOCCOCCC(=O)NCCCCCCCCCCCCCCC(=O)O)NC(=O)[C@H](CO)NC(=O)[C@H](C(C)(C)O)NC(=O)[C@H](CC2CCCCC2)NC(=O)[C@H](CCN)NC(=O)[C@@H](CC(C)C)NC(=O)[C@H](CCCN)NC(=O)[C@H](Cc2ccc(C(=O)O)cc2)NC(=O)[C@H](Cc2ccc(-c3ccccc3)cc2)NC(=O)[C@H](Cc2ccc(C(=O)O)cc2)NC(=O)[C@H](Cc2cccc(C(F)(F)F)c2)NC(=O)[C@H](CC(=O)O)NC(=O)[C@H](Cc2ccc(OCC(=O)O)cc2)NC1=O [Compound 2912] ({CH2CO}-[Nle]Y(Carboxymethyl)D[Phe(3-CF3)][Phe(4-COOH)][Bip][Phe(4-COOH)][Orn][dL][Dab][Cha][Val(3-OH)]SC[Dab][PEG4]-{NH(CH2)14COOH}; thioether N-14) | 240
CCCC[C@@H]1NC(=O)CSC[C@@H](C(=O)N[C@@H](CCN)C(=O)NCCCCCCCCCCCCCCC(=O)O)NC(=O)[C@H](CO)NC(=O)[C@H](C(C)(C)O)NC(=O)[C@H](CC2CCCCC2)NC(=O)[C@H](CCN)NC(=O)[C@@H](CC(C)C)NC(=O)[C@H](CCCN)NC(=O)[C@H](Cc2ccc(C(=O)O)cc2)NC(=O)[C@H](Cc2ccc(-c3ccccc3)cc2)NC(=O)[C@H](Cc2ccc(C(=O)O)cc2)NC(=O)[C@H](Cc2cccc(C(F)(F)F)c2)NC(=O)[C@H](CC(=O)O)NC(=O)[C@H](Cc2ccc(OCC(=O)O)cc2)NC1=O [Compound 2913] ({CH2CO}-[Nle]Y(Carboxymethyl)D[Phe(3-CF3)][Phe(4-COOH)][Bip][Phe(4-COOH)][Orn][dL][Dab][Cha][Val(3-OH)]SC[Dab]-{NH(CH2)14COOH}; thioether N-14) | 631
CC(C)C[C@H]1NC(=O)[C@H](CCCN)NC(=O)[C@H](Cc2ccc(C(=O)O)cc2)NC(=O)[C@H](Cc2ccc(-c3ccccc3)cc2)NC(=O)[C@H](Cc2ccc(C(=O)O)cc2)NC(=O)[C@H](Cc2cccc(C(F)(F)F)c2)NC(=O)[C@H](CC(=O)O)NC(=O)[C@H](Cc2ccc(OCC(=O)O)cc2)NC(=O)[C@H](CN2CCOCC2)NC(=O)CSC[C@@H](C(=O)N[C@@H](CCN)C(=O)NCCOCCOCC(=O)NCCOCCOCC(=O)NCCCCCCCCCCCCC(=O)O)NC(=O)[C@H](CO)NC(=O)[C@H](C(C)(C)O)NC(=O)[C@H](CC2CCCCC2)NC(=O)[C@H](CCN)NC1=O [Compound 2914] ({CH2CO}-[Ala(morpholin-4-yl)]Y(Carboxymethyl)D[Phe(3-CF3)][Phe(4-COOH)][Bip][Phe(4-COOH)][Orn][dL][Dab][Cha][Val(3-OH)]SC[Dab][AEEA][AEEA]-{NH(CH2)12COOH}; thioether N-14) | 24
CC(C)C[C@H]1NC(=O)[C@H](CCCN)NC(=O)[C@H](Cc2ccc(C(=O)O)cc2)NC(=O)[C@H](Cc2ccc(-c3ccccc3)cc2)NC(=O)[C@H](Cc2ccc(C(=O)O)cc2)NC(=O)[C@H](Cc2cccc(C(F)(F)F)c2)NC(=O)[C@H](CC(=O)O)NC(=O)[C@H](Cc2ccc(OCC(=O)O)cc2)NC(=O)[C@H](CN2CCOCC2)NC(=O)CSC[C@@H](C(=O)N[C@@H](CCN)C(=O)NCCOCCOCC(=O)NCCOCCOCC(=O)NCCCCCCCCCCCCCCC(=O)O)NC(=O)[C@H](CO)NC(=O)[C@H](C(C)(C)O)NC(=O)[C@H](CC2CCCCC2)NC(=O)[C@H](CCN)NC1=O [Compound 2915] ({CH2CO}-[Ala(morpholin-4-yl)]Y(Carboxymethyl)D[Phe(3-CF3)][Phe(4-COOH)][Bip][Phe(4-COOH)][Orn][dL][Dab][Cha][Val(3-OH)]SC[Dab][AEEA][AEEA]-{NH(CH2)14COOH}; thioether N-14) | 176
CC(C)C[C@H]1NC(=O)[C@H](CCCN)NC(=O)[C@H](Cc2ccc(C(=O)O)cc2)NC(=O)[C@H](Cc2ccc(-c3ccccc3)cc2)NC(=O)[C@H](Cc2ccc(C(=O)O)cc2)NC(=O)[C@H](Cc2cccc(C(F)(F)F)c2)NC(=O)[C@H](CC(=O)O)NC(=O)[C@H](Cc2ccc(OCC(=O)O)cc2)NC(=O)[C@H](CN2CCOCC2)NC(=O)CSC[C@@H](C(=O)N[C@@H](CCN)C(=O)NCCOCCOCCOCCOCCC(=O)NCCCCCCCCCCCCC(=O)O)NC(=O)[C@H](CO)NC(=O)[C@H](C(C)(C)O)NC(=O)[C@H](CC2CCCCC2)NC(=O)[C@H](CCN)NC1=O [Compound 2916] ({CH2CO}-[Ala(morpholin-4-yl)]Y(Carboxymethyl)D[Phe(3-CF3)][Phe(4-COOH)][Bip][Phe(4-COOH)][Orn][dL][Dab][Cha][Val(3-OH)]SC[Dab][PEG4]-{NH(CH2)12COOH}; thioether N-14) | 25.3
CC(C)C[C@H]1NC(=O)[C@H](CCCN)NC(=O)[C@H](Cc2ccc(C(=O)O)cc2)NC(=O)[C@H](Cc2ccc(-c3ccccc3)cc2)NC(=O)[C@H](Cc2ccc(C(=O)O)cc2)NC(=O)[C@H](Cc2cccc(C(F)(F)F)c2)NC(=O)[C@H](CC(=O)O)NC(=O)[C@H](Cc2ccc(OCC(=O)O)cc2)NC(=O)[C@H](CN2CCOCC2)NC(=O)CSC[C@@H](C(=O)N[C@@H](CCN)C(=O)NCCOCCOCCOCCOCCC(=O)NCCCCCCCCCCCCCCC(=O)O)NC(=O)[C@H](CO)NC(=O)[C@H](C(C)(C)O)NC(=O)[C@H](CC2CCCCC2)NC(=O)[C@H](CCN)NC1=O [Compound 2917] ({CH2CO}-[Ala(morpholin-4-yl)]Y(Carboxymethyl)D[Phe(3-CF3)][Phe(4-COOH)][Bip][Phe(4-COOH)][Orn][dL][Dab][Cha][Val(3-OH)]SC[Dab][PEG4]-{NH(CH2)14COOH}; thioether N-14) | 135
CC(C)C[C@H]1NC(=O)[C@H](CCCN)NC(=O)[C@H](Cc2ccc(C(=O)O)cc2)NC(=O)[C@H](Cc2ccc(-c3ccccc3)cc2)NC(=O)[C@H](Cc2ccc(C(=O)O)cc2)NC(=O)[C@H](Cc2cccc(C(F)(F)F)c2)NC(=O)[C@H](CC(=O)O)NC(=O)[C@H](Cc2ccc(OCC(=O)O)cc2)NC(=O)[C@H](CN2CCOCC2)NC(=O)CSC[C@@H](C(=O)N[C@@H](CCN)C(=O)NCCCCCCCCCCCCC(=O)O)NC(=O)[C@H](CO)NC(=O)[C@H](C(C)(C)O)NC(=O)[C@H](CC2CCCCC2)NC(=O)[C@H](CCN)NC1=O [Compound 2918] ({CH2CO}-[Ala(morpholin-4-yl)]Y(Carboxymethyl)D[Phe(3-CF3)][Phe(4-COOH)][Bip][Phe(4-COOH)][Orn][dL][Dab][Cha][Val(3-OH)]SC[Dab]-{NH(CH2)12COOH}; thioether N-14) | 22.4
